Measured values as given in US20230391768A2, “IMIDAZOPYRIDINE DERIVATIVES AND AZA-IMIDAZOPYRIDINE DERIVATIVES AS JANUS KINASE 2 INHIBITORS AND USES THEREOF” (Dana-Farber Cancer Institute, Inc., priority 2018, published 2023).

Key:
JAK2 = JAK2 (Homo sapiens (Human), UniProt O60674); assay: JAK2 Z-Lyte biochemical assay; settings: commercial JAK2 Z-Lyte assay from Invitrogen
Method: The JAK2 Z-Lyte biochemical assay was performed according to manufacturer's instructions (Life Technologies).

PFPK5(P.falciparum) = PFPK5(P.falciparum) (Plasmodium falciparum (isolate 3D7), UniProt P61075); assay: KINOMEscan; type: binding; settings: read-out: percent of control
Method: (§1) In vitro profiling of Compound I-2 (1 μM) was performed using the DiscoveRx KINOMEscan® platform.

TRPM6 = TRPM6 (Homo sapiens (Human), UniProt Q9BX84); assay: KINOMEscan; type: binding; settings: read-out: percent of control
Method: as §1

ABL1-phosphorylated = ABL1-phosphorylated (Homo sapiens (Human), UniProt P00519); assay: KINOMEscan; type: binding; settings: read-out: percent of control
Method: as §1

TXK = TXK (Homo sapiens (Human), UniProt P42681); assay: KINOMEscan; type: binding; settings: read-out: percent of control
Method: as §1

[1] = target: RPS6KA5 (Kin.Dom.1-N-terminal) (Homo sapiens (Human), UniProt O75582); assay: KINOMEscan; type: binding; settings: read-out: percent of control
Method: as §1

PRKD1 = PRKD1 (Homo sapiens (Human), UniProt Q15139); assay: KINOMEscan; type: binding; settings: read-out: percent of control
Method: as §1

EPHA2 = EPHA2 (Homo sapiens (Human), UniProt P29317); assay: KINOMEscan; type: binding; settings: read-out: percent of control
Method: as §1

DAPK1 = DAPK1 (Homo sapiens (Human), UniProt P53355); assay: KINOMEscan; type: binding; settings: read-out: percent of control
Method: as §1

MEK1 = MEK1 (Homo sapiens (Human), UniProt Q02750); assay: KINOMEscan; type: binding; settings: read-out: percent of control
Method: as §1

ERBB4 = ERBB4 (Homo sapiens (Human), UniProt Q15303); assay: KINOMEscan; type: binding; settings: read-out: percent of control
Sequence of ERBB4 (Q15303 26-1308): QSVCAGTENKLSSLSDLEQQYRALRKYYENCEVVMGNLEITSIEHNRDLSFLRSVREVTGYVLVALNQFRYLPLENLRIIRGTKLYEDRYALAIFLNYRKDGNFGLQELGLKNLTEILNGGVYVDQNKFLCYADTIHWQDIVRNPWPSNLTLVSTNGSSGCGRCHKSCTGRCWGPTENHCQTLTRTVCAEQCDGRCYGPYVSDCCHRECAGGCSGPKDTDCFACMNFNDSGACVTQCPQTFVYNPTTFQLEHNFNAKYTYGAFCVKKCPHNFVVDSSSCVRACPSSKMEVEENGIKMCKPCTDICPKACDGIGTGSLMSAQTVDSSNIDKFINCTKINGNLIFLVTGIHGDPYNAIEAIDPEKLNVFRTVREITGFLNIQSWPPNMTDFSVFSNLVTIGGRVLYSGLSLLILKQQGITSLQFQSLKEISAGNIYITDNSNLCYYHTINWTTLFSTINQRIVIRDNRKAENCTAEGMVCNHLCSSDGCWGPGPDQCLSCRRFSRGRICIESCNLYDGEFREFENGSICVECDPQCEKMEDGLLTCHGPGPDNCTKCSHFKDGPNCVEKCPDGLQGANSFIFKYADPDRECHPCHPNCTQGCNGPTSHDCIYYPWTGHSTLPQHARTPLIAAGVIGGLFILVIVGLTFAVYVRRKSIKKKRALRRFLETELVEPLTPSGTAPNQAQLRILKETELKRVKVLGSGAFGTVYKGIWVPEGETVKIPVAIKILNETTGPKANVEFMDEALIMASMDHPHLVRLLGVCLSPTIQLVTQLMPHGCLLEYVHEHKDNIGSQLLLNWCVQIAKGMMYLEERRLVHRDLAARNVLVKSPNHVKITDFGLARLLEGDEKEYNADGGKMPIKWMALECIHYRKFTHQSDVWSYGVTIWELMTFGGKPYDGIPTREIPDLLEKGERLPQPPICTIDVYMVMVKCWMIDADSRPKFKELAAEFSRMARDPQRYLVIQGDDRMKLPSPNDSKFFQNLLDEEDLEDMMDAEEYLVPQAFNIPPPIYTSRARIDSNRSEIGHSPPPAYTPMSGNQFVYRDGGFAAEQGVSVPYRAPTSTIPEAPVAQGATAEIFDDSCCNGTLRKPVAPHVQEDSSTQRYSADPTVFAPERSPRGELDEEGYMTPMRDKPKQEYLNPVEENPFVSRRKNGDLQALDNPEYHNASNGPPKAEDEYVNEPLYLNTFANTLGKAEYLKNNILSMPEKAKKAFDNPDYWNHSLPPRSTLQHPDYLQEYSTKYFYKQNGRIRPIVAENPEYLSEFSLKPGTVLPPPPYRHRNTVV
Method: as §1

NEK6 = NEK6 (Homo sapiens (Human), UniProt Q9HC98); assay: KINOMEscan; type: binding; settings: read-out: percent of control
Method: as §1

WEE2 = WEE2 (Homo sapiens (Human), UniProt P0C1S8); assay: KINOMEscan; type: binding; settings: read-out: percent of control
Method: as §1

AURKA = AURKA (Homo sapiens (Human), UniProt O14965); assay: KINOMEscan; type: binding; settings: read-out: percent of control
Method: as §1

WNK2 = WNK2 (Homo sapiens (Human), UniProt Q9Y3S1); assay: KINOMEscan; type: binding; settings: read-out: percent of control
Method: as §1

PRKD2 = PRKD2 (Homo sapiens (Human), UniProt Q9BZL6); assay: KINOMEscan; type: binding; settings: read-out: percent of control
Method: as §1

[2] = target: ABL1(F317I)-nonphosphorylated (Homo sapiens (Human), UniProt P00519, F317I); assay: KINOMEscan; type: binding; settings: read-out: percent of control
Method: as §1

MKNK1 = MKNK1 (Homo sapiens (Human), UniProt Q9BUB5); assay: KINOMEscan; type: binding; settings: read-out: percent of control
Method: as §1

CLK4 = CLK4 (Homo sapiens (Human), UniProt Q9HAZ1); assay: KINOMEscan; type: binding; settings: read-out: percent of control
Method: as §1

MYLK2 = MYLK2 (Homo sapiens (Human), UniProt Q9H1R3); assay: KINOMEscan; type: binding; settings: read-out: percent of control
Method: as §1

TNNI3K = TNNI3K (Homo sapiens (Human), UniProt Q59H18); assay: KINOMEscan; type: binding; settings: read-out: percent of control
Method: as §1

CDC2L2 = CDC2L2 (Homo sapiens (Human), UniProt Q9UQ88); assay: KINOMEscan; type: binding; settings: read-out: percent of control
Method: as §1

BMX = BMX (Homo sapiens (Human), UniProt P51813); assay: KINOMEscan; type: binding; settings: read-out: percent of control
Method: as §1

CASK = CASK (Homo sapiens (Human), UniProt O14936); assay: KINOMEscan; type: binding; settings: read-out: percent of control
Sequence of CASK (O14936 whole entry): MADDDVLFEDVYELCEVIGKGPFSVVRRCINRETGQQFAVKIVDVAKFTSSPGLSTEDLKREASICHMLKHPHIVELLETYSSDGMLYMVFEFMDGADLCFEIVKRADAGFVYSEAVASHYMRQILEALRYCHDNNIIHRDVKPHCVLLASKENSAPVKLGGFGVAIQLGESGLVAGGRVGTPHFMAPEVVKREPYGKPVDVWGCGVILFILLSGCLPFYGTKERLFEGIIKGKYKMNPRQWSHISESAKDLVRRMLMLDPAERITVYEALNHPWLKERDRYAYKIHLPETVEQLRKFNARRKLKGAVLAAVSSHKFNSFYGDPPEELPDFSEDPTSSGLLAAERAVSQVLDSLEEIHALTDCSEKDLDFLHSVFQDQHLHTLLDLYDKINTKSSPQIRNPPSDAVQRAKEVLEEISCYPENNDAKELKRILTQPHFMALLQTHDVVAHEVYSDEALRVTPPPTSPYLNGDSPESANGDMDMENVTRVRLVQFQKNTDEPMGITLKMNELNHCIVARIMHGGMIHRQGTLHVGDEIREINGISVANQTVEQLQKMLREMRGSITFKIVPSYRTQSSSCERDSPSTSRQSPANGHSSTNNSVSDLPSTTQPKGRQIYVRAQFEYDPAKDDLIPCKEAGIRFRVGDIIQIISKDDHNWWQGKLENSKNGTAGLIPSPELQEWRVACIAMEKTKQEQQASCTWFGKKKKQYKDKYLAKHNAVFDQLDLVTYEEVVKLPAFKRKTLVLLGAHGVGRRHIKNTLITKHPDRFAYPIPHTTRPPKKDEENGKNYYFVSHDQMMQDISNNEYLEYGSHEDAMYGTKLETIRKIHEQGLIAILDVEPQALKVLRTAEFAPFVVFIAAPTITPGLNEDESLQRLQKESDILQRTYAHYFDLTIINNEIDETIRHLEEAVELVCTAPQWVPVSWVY
Method: as §1

MARK2 = MARK2 (Homo sapiens (Human), UniProt Q7KZI7); assay: KINOMEscan; type: binding; settings: read-out: percent of control
Method: as §1

[3] = target: RSK2 (Kin.Dom.1-N-terminal) (Homo sapiens (Human), UniProt P51812); assay: KINOMEscan; type: binding; settings: read-out: percent of control
Method: as §1

PAK2 = PAK2 (Homo sapiens (Human), UniProt Q13177); assay: KINOMEscan; type: binding; settings: read-out: percent of control
Method: as §1

PIK3C2B = PIK3C2B (Homo sapiens (Human), UniProt O00750); assay: KINOMEscan; type: binding; settings: read-out: percent of control
Method: as §1

GCN2(Kin.Dom.2,S808G) = GCN2(Kin.Dom.2,S808G) (Homo sapiens (Human), UniProt Q9P2K8, S808G); assay: KINOMEscan; type: binding; settings: read-out: percent of control
Method: as §1

PAK3 = PAK3 (Homo sapiens (Human), UniProt O75914); assay: KINOMEscan; type: binding; settings: read-out: percent of control
Sequence of PAK3 (O75914 whole entry): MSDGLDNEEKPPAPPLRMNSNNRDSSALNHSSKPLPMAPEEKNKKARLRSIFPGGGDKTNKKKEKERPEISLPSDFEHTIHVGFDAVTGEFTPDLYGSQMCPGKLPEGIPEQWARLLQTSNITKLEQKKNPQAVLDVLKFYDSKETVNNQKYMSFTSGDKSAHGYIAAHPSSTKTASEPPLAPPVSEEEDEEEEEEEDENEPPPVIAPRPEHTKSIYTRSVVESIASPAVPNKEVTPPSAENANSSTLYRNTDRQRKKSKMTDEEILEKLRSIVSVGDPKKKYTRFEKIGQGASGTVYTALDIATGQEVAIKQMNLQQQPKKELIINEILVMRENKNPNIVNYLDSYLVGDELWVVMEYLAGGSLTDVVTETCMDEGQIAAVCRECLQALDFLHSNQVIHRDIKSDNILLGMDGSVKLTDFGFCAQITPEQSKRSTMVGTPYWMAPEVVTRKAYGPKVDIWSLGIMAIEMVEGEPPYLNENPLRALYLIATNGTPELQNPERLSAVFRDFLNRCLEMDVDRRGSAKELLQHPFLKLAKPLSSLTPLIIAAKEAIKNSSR
Method: as §1

EIF2AK1 = EIF2AK1 (Homo sapiens (Human), UniProt Q9BQI3); assay: KINOMEscan; type: binding; settings: read-out: percent of control
Method: as §1

EGFR = EGFR (Homo sapiens (Human), UniProt P00533); assay: KINOMEscan; type: binding; settings: read-out: percent of control
Sequence of EGFR (P00533 25-1210): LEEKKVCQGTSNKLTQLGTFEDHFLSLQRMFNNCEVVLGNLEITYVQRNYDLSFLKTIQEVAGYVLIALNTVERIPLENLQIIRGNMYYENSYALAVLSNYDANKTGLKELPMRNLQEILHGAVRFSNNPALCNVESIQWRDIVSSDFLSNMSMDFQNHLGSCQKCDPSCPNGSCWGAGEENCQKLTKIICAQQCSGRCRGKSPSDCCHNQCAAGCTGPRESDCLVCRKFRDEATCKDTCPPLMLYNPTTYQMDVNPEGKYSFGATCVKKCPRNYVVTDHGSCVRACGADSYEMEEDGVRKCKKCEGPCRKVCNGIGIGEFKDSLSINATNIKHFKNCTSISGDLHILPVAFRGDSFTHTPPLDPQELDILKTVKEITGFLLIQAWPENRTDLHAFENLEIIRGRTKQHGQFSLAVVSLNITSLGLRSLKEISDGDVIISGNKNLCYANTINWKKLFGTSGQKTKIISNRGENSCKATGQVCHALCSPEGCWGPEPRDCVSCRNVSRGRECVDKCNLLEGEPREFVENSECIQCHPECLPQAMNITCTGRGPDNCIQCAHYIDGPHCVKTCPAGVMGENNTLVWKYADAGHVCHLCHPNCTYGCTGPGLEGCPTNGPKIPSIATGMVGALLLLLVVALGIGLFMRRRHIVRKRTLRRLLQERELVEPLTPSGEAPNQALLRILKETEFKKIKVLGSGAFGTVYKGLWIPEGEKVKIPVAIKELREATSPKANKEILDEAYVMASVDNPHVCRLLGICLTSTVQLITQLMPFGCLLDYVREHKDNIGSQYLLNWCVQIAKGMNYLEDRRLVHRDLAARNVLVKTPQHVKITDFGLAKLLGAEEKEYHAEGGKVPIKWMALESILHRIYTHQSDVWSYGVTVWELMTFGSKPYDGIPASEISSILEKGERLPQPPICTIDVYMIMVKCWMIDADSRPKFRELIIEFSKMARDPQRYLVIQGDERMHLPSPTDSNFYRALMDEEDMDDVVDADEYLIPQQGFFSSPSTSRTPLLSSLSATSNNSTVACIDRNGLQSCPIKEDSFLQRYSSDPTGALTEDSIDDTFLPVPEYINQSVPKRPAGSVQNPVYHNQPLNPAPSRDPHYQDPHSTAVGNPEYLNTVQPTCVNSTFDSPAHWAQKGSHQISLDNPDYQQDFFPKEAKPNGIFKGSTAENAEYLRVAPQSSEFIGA
Method: as §1

[4] = target: ABL1(E255K)-phosphorylated (Homo sapiens (Human), UniProt P00519, E255K); assay: KINOMEscan; type: binding; settings: read-out: percent of control
Method: as §1

ALK = ALK (Homo sapiens (Human), UniProt Q9UM73); assay: KINOMEscan; type: binding; settings: read-out: percent of control
Method: as §1

CSF1R = CSF1R (Homo sapiens (Human), UniProt P07333); assay: KINOMEscan; type: binding; settings: read-out: percent of control
Sequence of CSF1R (P07333 20-972): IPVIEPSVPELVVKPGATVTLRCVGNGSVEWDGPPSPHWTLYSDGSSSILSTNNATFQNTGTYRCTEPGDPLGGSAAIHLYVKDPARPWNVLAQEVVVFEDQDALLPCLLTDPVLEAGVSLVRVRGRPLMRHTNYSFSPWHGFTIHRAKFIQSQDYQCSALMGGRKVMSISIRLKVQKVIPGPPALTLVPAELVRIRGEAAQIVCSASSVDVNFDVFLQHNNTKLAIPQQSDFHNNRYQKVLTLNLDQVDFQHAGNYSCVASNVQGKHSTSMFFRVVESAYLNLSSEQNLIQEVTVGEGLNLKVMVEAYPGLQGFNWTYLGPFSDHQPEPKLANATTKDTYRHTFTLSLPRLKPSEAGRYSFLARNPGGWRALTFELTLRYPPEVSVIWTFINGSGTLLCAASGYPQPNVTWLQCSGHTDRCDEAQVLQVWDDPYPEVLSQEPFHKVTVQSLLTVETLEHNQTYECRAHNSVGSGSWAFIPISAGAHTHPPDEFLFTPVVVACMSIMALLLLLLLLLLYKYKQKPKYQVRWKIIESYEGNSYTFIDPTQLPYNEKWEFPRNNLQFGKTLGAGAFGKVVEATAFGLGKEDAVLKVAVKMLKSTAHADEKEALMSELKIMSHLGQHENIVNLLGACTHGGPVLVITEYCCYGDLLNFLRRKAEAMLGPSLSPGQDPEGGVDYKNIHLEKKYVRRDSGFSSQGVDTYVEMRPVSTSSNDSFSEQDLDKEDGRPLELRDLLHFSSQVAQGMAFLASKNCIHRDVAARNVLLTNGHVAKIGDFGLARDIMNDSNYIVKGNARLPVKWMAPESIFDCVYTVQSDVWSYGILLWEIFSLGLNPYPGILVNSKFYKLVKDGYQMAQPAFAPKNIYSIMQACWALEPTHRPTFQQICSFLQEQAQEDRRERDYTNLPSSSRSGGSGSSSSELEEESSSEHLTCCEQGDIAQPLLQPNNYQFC
Method: as §1

TNIK = TNIK (Homo sapiens (Human), UniProt Q9UKE5); assay: KINOMEscan; type: binding; settings: read-out: percent of control
Method: as §1

PDGFRB = PDGFRB (Homo sapiens (Human), UniProt P09619); assay: KINOMEscan; type: binding; settings: read-out: percent of control
Method: as §1

DAPK2 = DAPK2 (Homo sapiens (Human), UniProt Q9UIK4); assay: KINOMEscan; type: binding; settings: read-out: percent of control
Method: as §1

SMILES	IC50 (JAK2) [nM]	remaining binding at 1 µM (PFPK5(P.falciparum)) [%]	remaining binding at 1 µM (TRPM6) [%]	remaining binding at 1 µM (ABL1-phosphorylated) [%]	remaining binding at 1 µM (TXK) [%]	remaining binding at 1 µM [1] [%]	remaining binding at 1 µM (PRKD1) [%]	remaining binding at 1 µM (EPHA2) [%]	remaining binding at 1 µM (DAPK1) [%]	remaining binding at 1 µM (MEK1) [%]	remaining binding at 1 µM (ERBB4) [%]	remaining binding at 1 µM (NEK6) [%]	remaining binding at 1 µM (WEE2) [%]	remaining binding at 1 µM (AURKA) [%]	remaining binding at 1 µM (WNK2) [%]	remaining binding at 1 µM (PRKD2) [%]	remaining binding at 1 µM [2] [%]	remaining binding at 1 µM (MKNK1) [%]	remaining binding at 1 µM (CLK4) [%]	remaining binding at 1 µM (MYLK2) [%]	further results
CCN1CCN(Cc2cc(NC(=O)c3ccc(C)c(-c4ccc5nc(NC(=O)C6CC6)cn5c4)c3)cc(C(F)(F)F)c2)CC1 [Compound I-6, 3-(2-(cyclopropanecarboxamido)imidazo[1,2-a]pyridin-6-yl)-N-(3-((4-ethylpiperazin-1-yl)methyl)-5-(trifluoromethyl)phenyl)-4-methylbenzamide]	284	77	78	0.1	19	66	87	0.15	100	94	53	100	95	94	57	100	0	91	28	83	remaining binding at 1 µM (TNNI3K): 36%; remaining binding at 1 µM (CDC2L2): 34%; remaining binding at 1 µM (BMX): 42%; remaining binding at 1 µM (CASK): 85%; remaining binding at 1 µM (MARK2): 78%; remaining binding at 1 µM [3]: 78%; remaining binding at 1 µM (PAK2): 70%; remaining binding at 1 µM (PIK3C2B): 100%; remaining binding at 1 µM (GCN2(Kin.Dom.2,S808G)): 97%; remaining binding at 1 µM (PAK3): 66%; remaining binding at 1 µM (EIF2AK1): 92%; remaining binding at 1 µM (EGFR): 24%; remaining binding at 1 µM [4]: 0.65%; remaining binding at 1 µM (ALK): 16%; remaining binding at 1 µM (CSF1R): 0%; remaining binding at 1 µM (TNIK): 14%; remaining binding at 1 µM (PDGFRB): 0%; remaining binding at 1 µM (DAPK2): 100%
CCN1CCN(Cc2cc(NC(=O)c3ccc(C)c(-c4ccc5nc(NC(=O)C6CC6)cn5n4)c3)cc(C(F)(F)F)c2)CC1 [Compound I-2, 3-(2-(cyclopropanecarboxamido)imidazo[1,2-b]pyridazin-6-yl)-N-(3-((4-ethylpiperazin-1-yl)methyl)-5-(trifluoromethyl)phenyl)-4-methylbenzamide]	190	91	93	0.1	16	73	93	1.8	100	92	71	100	100	64	72	97	0	76	11	92	remaining binding at 1 µM (TNNI3K): 56%; remaining binding at 1 µM (CDC2L2): 27%; remaining binding at 1 µM (BMX): 65%; remaining binding at 1 µM (CASK): 86%; remaining binding at 1 µM (MARK2): 96%; remaining binding at 1 µM [3]: 88%; remaining binding at 1 µM (PAK2): 93%; remaining binding at 1 µM (PIK3C2B): 100%; remaining binding at 1 µM (GCN2(Kin.Dom.2,S808G)): 82%; remaining binding at 1 µM (PAK3): 82%; remaining binding at 1 µM (EIF2AK1): 100%; remaining binding at 1 µM (EGFR): 31%; remaining binding at 1 µM [4]: 0.5%; remaining binding at 1 µM (ALK): 8.7%; remaining binding at 1 µM (CSF1R): 0.05%; remaining binding at 1 µM (TNIK): 16%; remaining binding at 1 µM (PDGFRB): 0%; remaining binding at 1 µM (DAPK2): 94%
